Several values for one entry are separate records, joined by “and”; a condition that tells them apart may be missing. Equal entries are not always repeated.
Tests used:
[1] = system: neuron-rich cortical cell cultures; experiment: serum deprivation-induced neuronal cell apoptosis; format: cell-based, mouse; conditions: 24 hr, 5 mM Li^+, 100 μM zVADfmk, 1 μM 2-hydroxy TTBA
Description: (§1) (B) Neuron-rich cortical cell cultures (DIV 7) were deprived of serum, alone or with addition of 100 μM zVADfmk, 1 μM 2-hydroxy TTBA, or 5 mM Li^+. Neuronal death was analyzed 24 hr later by counting viable neurons excluding trypan (mean±SEM, n=4). *, Significant difference from the relevant control (serum deprivation alone), p<0.05 using ANOVA and Student-Neuman-Keuls test. (C) Western blot analysis of FADD antibody following immunoprecipitation with Fas antibody in the same samples above.
(§2) Additional experiments were performed to examine if targeting both neuronal cell necrosis and apoptosis would result in synergic neuroprotection in […] transgenic mice. […] Neuronal cell apoptosis was induced by serum deprivation in neuron-rich cortical cell cultures as reported, which was prevented by addition of 5 mM Li^+ as well as zVADfmk, a broad spectrum inhibitor of caspases (FIG. 5B). […] Additional experiments were performed to examine if Li^+ would prevent Fas signaling pathway. […] This implies that 2-Hydroxy-TTBA and Li^+ blocks oxidative neuronal cell necrosis and apoptosis, respectively.

Fas-FADD interaction = Fas-FADD interaction in serum-deprived neuron-rich cultures (immunoprecipitation, Western blot); format: cell-based, mouse; conditions: deprived of serum for 8 hr
Description: as §1, §2

G93A transgenic mice = format: in vivo, mouse
Description: Animals were daily fed with 2-hydroxy TTBA (30 mg/kg/d), 0.2% lithium carbonate (200 mg/kg/d, Li), or a combination of both (2-hydroxy TTBA+Li) from 8 weeks of age in diet.
Animals were daily fed with 2-hydroxy TTBA (30 mg/kg/d), 0.2% lithium carbonate (Li), or a combination of both (2-hydroxy TTBA+Li) from 8 weeks of age in diet.
C & D: (C) Bright-field photomicrographs of cresyl violet-stained ventral horn sections from the wild type (a), or G93AA transgenic mice treated with vehicle (b), or with a combination of 2-hydroxy TTBA+Li (c) at 16 weeks of age.

NO = experiment: LPS-induced NO in mesencephalic cultures; format: cell-based; conditions: 5 ng/ml LPS; 0-100 uM; 24 hours
Description: Mesencephalic nerve cell cultures were pre-treated with 5 ng/ml of LPS for 30 minutes to make a cull culture model of Parkinson's disease, and then 0-100 uM of chemical 01 were added. The level of NO was evaluated 24 hours after administration of chemical 01, and the level of TNF-a was evaluated 3 hours after administration of chemical 01 (mean±SEM, n=7-12 culture well/each group).

IL-1β = experiment: LPS-induced IL-1β production in BV2 cells; format: cell-based
Description: Suppressing effects of chemical 01 in BV2 cell lines on production of IL-1β, IL-6 or TNF-α were evaluated. BV2 cells were exposed to 1 ug/ml LPS (inflammation-inducing material) with inclusion of chemical 01 at indicated doses. After 4 hours, supernatant were collected and concentrations of TNF-a were evaluated. In addition, BV2 cells were treated by the same method, and 24 hours later, supernatant were collected and concentrations of IL-1β and IL-6 were evaluated (mean±SEM, n=3). BV2 cells treated with LPS only were used as control.

Tg2576 transgenic mice = experiment: brain Aβ42/Aβ40 levels in Tg2576 transgenic mice (ELISA); format: in vivo, mouse; conditions: 25 mg/kg/d for 8 months (9~17 months)
Description: 17 month-old Tg2576 transgenic mice were fed chow alone, or containing 25 mg/kg/day of chemical 01, for 8 months before being sacrificed (9˜17 months). The level of Aβ42 or Aβ40 protein was quantitatively analyzed by colorimetric sandwich ELISA kit (BIOSOURCE, Camarillo, Calif.) (mean±SEM, n=2).
17 month-old Tg2576 transgenic mice were fed chow alone (saline only), or containing 25 mg/kg/day of chemical—01, for 8 months before being sacrificed (9˜17 month). SDS-soluble/insoluble Aβ42 or Aβ40 levels were analyzed by colorimetric sandwich ELISA kit (BIOSOURCE, Camarillo, Calif.).

[2] = system: APPswe/PS1deltaE9 double transgenic mice; experiment: amyloid plaque burden in APPswe/PS1deltaE9 double transgenic mice (Thioflavin-S); format: in vivo, mouse
Description: The treatment with 25 mg/kg/day of chemical 01 for 7 months (from 3.5 to 10.5 month-old APP/PS1) caused a significant 53% reduction in amyloid plaque burden compared to APP/PS1 dementia mouse fed with general chow only.
10.5 month-old APPswe/PS1deltaE9 double transgenic mice were fed chow alone (saline only), or containing 25 mg/kg/day of chemical—01, for 7.5 months before being sacrificed (3˜10.5 month). 18-20 μm brain sections stained 1% Thioflavin-S for 5 min and observed under fluorescence microscope system.

[3] = system: APPswe/PS1deltaE9 double transgenic mice; experiment: elevated plus maze in APPswe/PS1deltaE9 double transgenic mice; format: in vivo, mouse; conditions: 25 mg/kg/day for 14.5 months (3~17.5 months)
Description: After administration of 14.5 months, Elevated plus maze test was performed to evaluate the behavior improvement like example 10-3-2 (mean±SEM, n=3-5).
17.5 month-old APPswe/PS1deltaE9 double transgenic mice were fed chow alone (saline only), or containing 25 mg/kg/day of chemical—01, for […] (3˜17.5 month).
The anxiety function was analyzed by elevated plus maze test. The time spent in the open arm was recorded in the elevated plus maze.

G93A mouse = experiment: microglia number and activation in G93A mouse (TOMATO Lectin); format: in vivo; conditions: 5 mg/kg/day or 20 mg/kg/day; lumbar ventral horn
Description: Number and activation degree of microglia (a marker of inflammation in brain disease animal model) expressed in the lumbar ventral horn of G93A mouse were evaluated with TOMATO Lectin dye. In G93A mouse, number of microglia was increased and microglia was more activated compared to the wild type mouse. Treatment with 5 mg/kg/day or 20 mg/kg/day of chemical 01 decreased the increase of number and activation degree of microglia (FIG. 13F).

[4] = system: mesencephalic nerve cell cultures; experiment: dopaminergic nerve cell death by LPS in mesencephalic cultures ([3H]DA uptake); format: cell-based; conditions: 5 ng/ml LPS; 0-100 uM; 7 days
Description: Mesencephalic nerve cell cultures were pre-treated with 5 ng/ml of LPS for 30 minutes to make a cull culture model of Parkinson's disease, and then 0-100 uM of chemical 01 were added. 7 days after administration, [^3H]DA uptake was evaluated to quantify the death of the nerve cell (mean±SEM, n=4 culture well/each group).

[5] = 2-hydroxy TTBA 30 mg/kg/d, 0.2% lithium carbonate, or both, in diet from 8 weeks of age, n=13

## O=C(O)c1cc(NCc2c(F)c(F)c(C(F)(F)F)c(F)c2F)ccc1O [2-Hydroxy-TTBA, 2-hydroxy-5-(2,3,5,6-tetrafluoro-4-trifluoromethyl-benzylamino)-benzoic acid]
[1]
  serum deprivation-induced neuronal cell apoptosis, effect in words: not attenuated
[1]; listed as 2-hydroxy TTBA
  serum deprivation-induced neuronal cell apoptosis, effect in words: not
Fas-FADD interaction
  Fas-FADD interaction, effect in words: not
G93A transgenic mice; [5]
  Mortality (survival): 143.8 days and 143.8^a ± 2.83 days
  Onset from PaGE: 114.1 days and 114.1^a ± 2.02 days
  Onset from Rotarod: 112.3 days and 112.3^a ± 2.89 days
G93A transgenic mice; G93A mice at 18 weeks of age, oral administration in diet
  weight loss, % of the wild type: 41%
G93A transgenic mice; G93A mice, drug in diet
  extension reflex, motor strength, and coordination: improved
G93A transgenic mice; at 16 weeks of age
  degeneration (loss) of ventral motor neurons in lumbar spinal cord: 57%
G93A transgenic mice; from 11 weeks to 18 weeks, in the diet
  motor performance versus vehicle-treated control: better motor performance

## O=C(O)c1cc(NCCc2ccc(C(F)(F)F)cc2)ccc1O [chemical 01, 2-Hydroxy-5-[2-(4-trifluoromethyl-phenyl)-ethylamino]-benzoic acid]
NO
  increase of NO caused by LPS: dose-dependent manner
IL-1β; 100 uM, 1 ug/ml LPS, 24 hours
  decrease of IL-1β released into media: about 80%
IL-1β; 1~100 uM
  IL-1β decrease, in words: dose-dependent manner
Tg2576 transgenic mice
  SDS-soluble/insoluble Aβ42 and Aβ40 levels, in words: decreased
Tg2576 transgenic mice; listed as chemical—01
  SDS-soluble/insoluble Aβ42 and Aβ40 levels, in words: reduced
[2]; 25 mg/kg/day for 7 months (from 3.5 to 10.5 month-old)
  reduction in amyloid plaque burden: 53%
[2]; 25 mg/kg/day for 7.5 months (3~10.5 month)
  reduction in plaque burden: 53.4%
[2]; 25 mg/kg/day, from 8.5 to 12.5 month-old (4 months)
  reduction in amyloid plaque burden: 49.3%
[3]
  time spent in the open arm: decreased the time
[3]; listed as chemical—01
  time spent in the open arm: spent less time
G93A mouse
  increase of number and activation degree of microglia: decreased
[4]
  dopaminergic nerve cell death caused by LPS: dose-dependent manner

Source: patent US20120301551A1, “COMPOUNDS AND COMPOSITIONS FOR TREATING NEURONAL DEATH OR NEUROLOGICAL DYSFUNCTION” (Neurotech Pharmaceuticals Co., Ltd., priority 2005, published 2012)
